Among the data in US10758534B2 (Vertex Pharmaceuticals Incorporated, priority 2014, dated 2020) are EC30 values, retold here.

This test has as its target T1, F508del (Homo sapiens, UniProt P13569, DEL508-508).
T1 construct: expressed in transfected cells
The test can be described thus: Protocol 2: FRET membrane potential optical assay (VIPR), identification of correction compounds. It is filed as cell-based. An outline of the steps:
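NIH3T3 mouse fibroblasts stably expressing F508del were treated with test compound for 16 hrs at 37° C. in serum-free medium; 27° C. incubation served as positive control. F508del was activated with 10 μM forskolin plus 20 μM genistein in Cl^−-free medium, and Cl^− efflux-driven depolarization was read by DiSBAC2(3)/CC2-DMPE FRET.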

[1] abbreviates: Table 3, compounds of Table 1 as modulators of CFTR activity, protocol not stated.
Setting [2] is: F508del CFTR modulator activity, compounds of Table 1, read-out: EC30.

Like-named read-outs stand apart in the source and are kept apart here.

T1 sequence (P13569 with tags, fused parts or gaps DEL508-508): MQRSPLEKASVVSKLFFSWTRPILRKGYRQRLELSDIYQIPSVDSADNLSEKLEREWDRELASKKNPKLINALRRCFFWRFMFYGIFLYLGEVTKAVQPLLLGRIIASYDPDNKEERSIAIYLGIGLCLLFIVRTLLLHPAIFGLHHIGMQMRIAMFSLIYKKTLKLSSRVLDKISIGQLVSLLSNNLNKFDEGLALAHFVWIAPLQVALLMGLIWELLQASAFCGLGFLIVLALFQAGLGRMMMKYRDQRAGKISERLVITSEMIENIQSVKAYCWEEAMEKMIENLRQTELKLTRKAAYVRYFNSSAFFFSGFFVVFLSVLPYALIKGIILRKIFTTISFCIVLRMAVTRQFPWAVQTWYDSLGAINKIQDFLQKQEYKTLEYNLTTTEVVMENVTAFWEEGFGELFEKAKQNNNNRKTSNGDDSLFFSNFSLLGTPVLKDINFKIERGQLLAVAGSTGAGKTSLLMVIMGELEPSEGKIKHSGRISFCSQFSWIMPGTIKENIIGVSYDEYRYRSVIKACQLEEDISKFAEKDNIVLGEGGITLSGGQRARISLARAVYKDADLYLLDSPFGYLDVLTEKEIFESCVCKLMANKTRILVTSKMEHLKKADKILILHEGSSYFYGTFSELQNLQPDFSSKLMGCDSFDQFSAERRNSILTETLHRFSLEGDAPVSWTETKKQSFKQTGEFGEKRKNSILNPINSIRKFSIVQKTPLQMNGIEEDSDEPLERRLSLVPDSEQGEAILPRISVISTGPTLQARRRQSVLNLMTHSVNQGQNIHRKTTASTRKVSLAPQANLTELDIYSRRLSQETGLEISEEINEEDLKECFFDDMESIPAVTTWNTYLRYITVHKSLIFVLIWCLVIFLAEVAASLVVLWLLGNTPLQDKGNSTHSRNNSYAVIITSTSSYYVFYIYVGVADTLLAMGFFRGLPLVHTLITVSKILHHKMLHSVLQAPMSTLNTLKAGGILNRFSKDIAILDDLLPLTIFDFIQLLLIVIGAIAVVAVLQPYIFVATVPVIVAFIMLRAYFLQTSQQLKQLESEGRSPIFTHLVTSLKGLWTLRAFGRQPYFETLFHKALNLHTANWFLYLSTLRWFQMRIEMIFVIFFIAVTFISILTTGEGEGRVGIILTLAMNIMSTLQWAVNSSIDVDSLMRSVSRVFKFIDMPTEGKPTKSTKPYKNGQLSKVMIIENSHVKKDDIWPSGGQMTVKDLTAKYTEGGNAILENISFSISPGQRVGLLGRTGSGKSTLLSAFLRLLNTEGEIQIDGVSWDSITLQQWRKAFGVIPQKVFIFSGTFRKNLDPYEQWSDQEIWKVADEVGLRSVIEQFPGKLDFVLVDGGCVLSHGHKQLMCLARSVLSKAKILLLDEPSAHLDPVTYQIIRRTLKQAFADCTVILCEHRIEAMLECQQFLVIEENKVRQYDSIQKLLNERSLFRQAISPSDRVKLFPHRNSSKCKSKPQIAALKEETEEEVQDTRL

In the case of `CC(C)COc1cc(F)cc(-c2ccc(C(=O)NS(=O)(=O)c3ccn[nH]3)c(N3CCC(C)C(C)C3)n2)c1` (centres unmarked) [Compound 528, 2-(3,4-dimethyl-1-piperidyl)-6-(3-fluoro-5-isobutoxy-phenyl)-N-(1H-pyrazol-5-ylsulfonyl)pyridine-3-carboxamide], under setting [1], the concentration for an effect of 30% (EC30) result is “+++ (“+++” means <3 uM)”.
Still for that read-out and setting: with `COc1c(C)cccc1-c1cc(C(=O)NS(=O)(=O)c2cccc(N)c2)n(Cc2c(C)cc(C)cc2C)n1` [Compound 208, N-(3-aminophenyl)sulfonyl-5-(2-methoxy-3-methyl-phenyl)-2-[(2,4,6-trimethylphenyl)methyl]pyrazole-3-carboxamide] the entry was “+++ (“+++” means <3 uM)”.
Same read-out and setting: with `CCOc1ccc(-c2ccc(C(=O)NS(=O)(=O)c3cc[nH]n3)c(Oc3c(C)cc(C)cc3C)n2)cc1` [Compound 190, 6-(4-ethoxyphenyl)-N-(1H-pyrazol-3-ylsulfonyl)-2-(2,4,6-trimethylphenoxy)pyridine-3-carboxamide] the entry was “+++ (“+++” means <3 uM)”.
Take `C[C@@H]1CN(c2nc(-c3cccc4[nH]ccc34)ccc2C(=O)NS(=O)(=O)c2ccc[nH]c2=O)C(C)(C)C1` [Compound 2636, 6-(1H-indol-4-yl)-N-[(2-oxo-1H-pyridin-3-yl)sulfonyl]-2-[(4S)-2,2,4-trimethylpyrrolidin-1-yl]pyridine-3-carboxamide]: the concentration for an effect of 30% (EC30) under setting [2] was greater than 10000 nM.
Regarding `CC1CN(c2ncccc2C(=O)NS(=O)(=O)c2cccc(NCCC(=O)OC(C)(C)C)n2)C(C)(C)C1` (centres unmarked) [Compound 2495, tert-butyl 3-[[6-[[2-(2,2,4-trimethylpyrrolidin-1-yl)pyridine-3-carbonyl]sulfamoyl]-2-pyridyl]amino]propanoate], the concentration for an effect of 30% (EC30) under setting [2] is less than 3000 nM.
As for `CC1CN(c2ncccc2C(=O)NS(=O)(=O)c2cccc(N3CCC4CCCCC4C3)n2)C(C)(C)C1` (centres unmarked) [Compound 2011, N—[[6-(3,4,4a,5,6,7,8,8a-octahydro-1H-isoquinolin-2-yl)-2-pyridyl]sulfonyl]-2-(2,2,4-trimethylpyrrolidin-1-yl)pyridine-3-carboxamide], under setting [2], the EC30 was less than 3000 nM.
As for `C[C@@H]1CC[C@H](C)N1c1nc(-c2ccccc2)ccc1C(=O)NS(=O)(=O)c1ccc[nH]c1=O` [Compound 660, 2-[(2S,5R)-2,5-dimethylpyrrolidin-1-yl]-N-[(2-oxo-1H-pyridin-3-yl)sulfonyl]-6-phenyl-pyridine-3-carboxamide], the 30% effect concentration (EC30) result under setting [1] is reported as “+ (“+” means greater than 10 uM)”.
On the same count and under the same terms, with `Cc1cccc(C)c1Cn1nc(C2CCCC2)cc1C(=O)NS(=O)(=O)c1cccc(N)c1` [Compound 105, N-(3-aminophenyl)sulfonyl-5-cyclopentyl-2-[(2,6-dimethylphenyl)methyl]pyrazole-3-carboxamide] the entry was “+++ (“+++” means <3 uM)”.
`CC(C)COc1cc(F)cc(-c2ccc(C(=O)NS(=O)(=O)c3cccc(N)n3)c(N3CCC(C)CC(C)C3)n2)c1` (centres unmarked) [Compound 2479, N-[(6-amino-2-pyridyl)sulfonyl]-2-(3,5-dimethylazepan-1-yl)-6-(3-fluoro-5-isobutoxy-phenyl)pyridine-3-carboxamide]: under setting [2], the EC30 is less than 3000 nM.
On to `Cc1cc(C)c(Oc2nc(C(C)(C)C)ccc2C(=O)NS(=N)(=O)c2cccc(N)c2)c(C)c1` (centres unmarked) [Compound 292, N-[(3-Aminophenyl)sulfonimidoyl]-6-tert-butyl-2-(2,4,6-trimethylphenoxy)pyridine-3-carboxamide], for which the EC30 entry under setting [1] is “+++ (“+++” means <3 uM)”.
Same read-out and setting: to `Cc1cc(C)c(Oc2nc(-c3ccccc3)ccc2C(=O)NS(=O)(=O)c2ccc[nH]c2=O)c(C)c1` [Compound 654, N-[(2-oxo-1H-pyridin-3-yl)sulfonyl]-6-phenyl-2-(2,4,6-trimethylphenoxy)pyridine-3-carboxamide] belongs “+++ (“+++” means <3 uM)”; to `CC(C)Oc1ccc(-c2ccc(C(=O)NS(=O)(=O)c3cccc(N)n3)c(N3CC[C@H](C)[C@H]3C)n2)cn1` [Compound 764, N-[(6-amino-2-pyridyl)sulfonyl]-2-[(2R,3S)-2,3-dimethylpyrrolidin-1-yl]-6-(6-isopropoxy-3-pyridyl)pyridine-3-carboxamide], “+++ (“+++” means <3 uM)”.
With `CC(C)COc1ccc(F)c(-c2ccc(C(=O)NS(=O)(=O)c3ccn[nH]3)c(N3[C@H](C)CC[C@@H]3C)n2)c1` [Compound 681, 2-[(2S,5R)-2,5-dimethylpyrrolidin-1-yl]-6-(2-fluoro-5-isobutoxy-phenyl)-N-(1H-pyrazol-5-ylsulfonyl)pyridine-3-carboxamide], the concentration for an effect of 30% (EC30) result under setting [1] was “+++ (“+++” means <3 uM)”.
Take `COc1cc(-c2ccc(C(=O)NS(=O)(=O)c3cccnc3N)c(N3C[C@@H](C)CC3(C)C)n2)ccc1C` [Compound 2379, N-[(2-amino-3-pyridyl)sulfonyl]-6-(3-methoxy-4-methyl-phenyl)-2-[(4S)-2,2,4-trimethylpyrrolidin-1-yl]pyridine-3-carboxamide]: under setting [2], the EC30 is less than 3000 nM.
With `C[C@@H]1CC[C@H](C)N1c1nc(-c2cc(F)cc(OCC3CC3)c2)ccc1C(=O)NS(=O)(=O)c1ccc[nH]c1=O` [Compound 541, 6-[3-(cyclopropylmethoxy)-5-fluoro-phenyl]-2-[(2S,5R)-2,5-dimethylpyrrolidin-1-yl]-N-[(2-oxo-1H-pyridin-3-yl)sulfonyl]pyridine-3-carboxamide], under setting [1], the EC30 entry was “+++ (“+++” means <3 uM)”.
Regarding `CCC(COC)Nc1cccc(S(=O)(=O)NC(=O)c2cccnc2N2CC(C)CC2(C)C)n1` (centres unmarked) [Compound 2221, N—[[6-[1-(methoxymethyl)propylamino]-2-pyridyl]sulfonyl]-2-(2,2,4-trimethylpyrrolidin-1-yl)pyridine-3-carboxamide], the EC30 under setting [2] was in the range of 3000 to 10000 nM.
Still for that read-out and setting: with `CC1CN(c2ncccc2C(=O)NS(=O)(=O)c2cccc(Oc3cccc4cccnc34)n2)C(C)(C)C1` (centres unmarked) [Compound 2333, N—[[6-(8-quinolyloxy)-2-pyridyl]sulfonyl]-2-(2,2,4-trimethylpyrrolidin-1-yl)pyridine-3-carboxamide] the figure was 3000 to 10000 nM; with `CC(C)COc1cc(F)cc(-c2ccc(C(=O)NS(=O)(=O)N3CC(O)CC(F)(F)C3)c(N3C[C@@H](C)CC3(C)C)n2)c1` (stereo partly drawn) [Compound 2508, N-[(3,3-difluoro-5-hydroxy-1-piperidyl)sulfonyl]-6-(3-fluoro-5-isobutoxy-phenyl)-2-[(4S)-2,2,4-trimethylpyrrolidin-1-yl]pyridine-3-carboxamide], less than 3000 nM.
As for `Cc1ccc(C(F)(F)F)c(Cn2nc(C(C)(C)C)cc2C(=O)NS(=O)(=O)c2ccccc2)c1` [Compound 304, N-(benzenesulfonyl)-5-tert-butyl-2-[[5-methyl-2-(trifluoromethyl)phenyl]methyl]pyrazole-3-carboxamide], under setting [1], the EC30 entry is “+++ (“+++” means <3 uM)”.
The same measure, in the same setting: with `CCCOc1cc(-c2ccc(C(=O)NS(=O)(=O)c3cccc(N)n3)c(N3[C@H](C)CC[C@@H]3C)n2)ccc1Cl` [Compound 773, N-[(6-amino-2-pyridyl)sulfonyl]-6-(4-chloro-3-propoxy-phenyl)-2-[(2R,5S)-2,5-dimethylpyrrolidin-1-yl]pyridine-3-carboxamide] the entry was “+++ (“+++” means <3 uM)”.
Take `Cc1cc(-c2ccc(C(=O)NS(=O)(=O)c3cccnc3N)c(N3C[C@@H](C)CC3(C)C)n2)ccc1F` [Compound 2052, N-[(2-amino-3-pyridyl)sulfonyl]-6-(4-fluoro-3-methyl-phenyl)-2-[(4S)-2,2,4-trimethylpyrrolidin-1-yl]pyridine-3-carboxamide]: under setting [2], the concentration for an effect of 30% (EC30) was less than 3000 nM.
With `Cc1cc(C)c(Oc2nc(N3CCCCC3)ccc2C(=O)NS(=O)(=O)c2cccc(N)n2)c(C)c1` [Compound 785, N-[(6-amino-2-pyridyl)sulfonyl]-6-(1-piperidyl)-2-(2,4,6-trimethylphenoxy)pyridine-3-carboxamide], the concentration for an effect of 30% (EC30) entry under setting [1] is listed as “+++ (“+++” means <3 uM)”.
Still for that read-out and setting: with `Cc1cc(C)c(Cc2cn(C(C)(C)C)nc2C(=O)NS(=O)(=O)c2cccc(N)c2)c(C)c1` [Compound 367] the entry was “+++ (“+++” means <3 uM)”.
Consider `C[C@@H]1CN(c2nc(-c3cccc(F)c3)ccc2C(=O)NS(=O)(=O)N2CC[C@H](N)C2)C(C)(C)C1` [Compound 2414, N-[(3S)-3-aminopyrrolidin-1-yl]sulfonyl-6-(3-fluorophenyl)-2-[(4S)-2,2,4-trimethylpyrrolidin-1-yl]pyridine-3-carboxamide], for which the concentration for an effect of 30% (EC30) under setting [2] fell in the range of 3000 to 10000 nM.
`Cc1cc(C)c(Oc2nc(C(C)(C)C)ccc2C(=O)NS(=O)(=O)c2cncc(N)c2)c(C)c1` [Compound 163, N-[(5-amino-3-pyridyl)sulfonyl]-6-tert-butyl-2-(2,4,6-trimethylphenoxy)pyridine-3-carboxamide]: the EC30 entry under setting [1] was “+++ (“+++” means <3 uM)”.
`CCOc1cccc(-c2ccc(C(=O)NS(=O)(=O)N3CC[C@H](N)C3)c(N3C[C@@H](C)CC3(C)C)n2)c1` [Compound 2570, N-[(3S)-3-aminopyrrolidin-1-yl]sulfonyl-6-(3-ethoxyphenyl)-2-[(4S)-2,2,4-trimethylpyrrolidin-1-yl]pyridine-3-carboxamide]: the 30% effect concentration (EC30) under setting [2] lay in the range of 3000 to 10000 nM.
With `Cc1cccc(C)c1Cn1nc(C(C)(C)C)cc1C(=O)NS(=O)(=O)c1cccc2c1OCC2` [Compound 211, 5-tert-butyl-N-(2,3-dihydrobenzofuran-7-ylsulfonyl)-2-[(2,6-dimethylphenyl)methyl]pyrazole-3-carboxamide], the 30% effect concentration (EC30) entry under setting [1] is “++ (“++” means between 3 uM and 10 uM)”.
Turning to `CC1CN(c2ncccc2C(=O)NS(=O)(=O)c2cccc(N3CCN(Cc4ccccn4)CC3)n2)C(C)(C)C1` (centres unmarked) [Compound 2504, N—[[6-[4-(2-pyridylmethyl)piperazin-1-yl]-2-pyridyl]sulfonyl]-2-(2,2,4-trimethylpyrrolidin-1-yl)pyridine-3-carboxamide], the EC30 under setting [2] was 3000 to 10000 nM.
On the same count and under the same terms, to `CC1CN(c2ncccc2C(=O)NS(=O)(=O)c2cccc(OCc3ccc(C(F)(F)F)cc3)n2)C(C)(C)C1` (centres unmarked) [Compound 2618, N—[[6-[[4-(trifluoromethyl)phenyl]methoxy]-2-pyridyl]sulfonyl]-2-(2,2,4-trimethylpyrrolidin-1-yl)pyridine-3-carboxamide] belongs less than 3000 nM.

A word on the EC30: it is the point of the concentration-response curve where the effect stands at 30%.
